pEC50: −log10 of the molar value.
Tests used:
[1] = system: Hepatitis C virus; experiment: Antiviral activity against Hepatitis C virus genotype 1b infected in human Huh-Mono cells assessed as reduction in replicon RNA after 4 days by RT-qPCR analysis; type: functional, organism-based, Hepacivirus hominis; details: 96 h
[2] = Cytotoxicity against human HuH6 cells after 3 days by MTT assay; type: cell-based
[3] = Cytotoxicity against human Huh5-2 cells after 3 days by MTT assay; type: cell-based, Huh-5-2
[4] = Cytotoxicity against human Huh-9-13 cells after 3 days by MTT assay; type: cell-based
[5] = system: Hepatitis C virus; experiment: Antiviral activity against Hepatitis C virus genotype 1b infected in human Huh-9-13 cells assessed as reduction in replicon RNA after 4days by RT-qPCR analysis; type: functional, organism-based, Hepacivirus hominis; details: 96 h
[6] = system: Hepatitis C virus; experiment: Antiviral activity against Hepatitis C virus genotype 1b infected in human Huh5-2 cells assessed as reduction in replicon RNA after 4 days by luciferase assay; type: functional, organism-based, Hepacivirus hominis; details: Huh-5-2, 96 h
[7] = system: Hepatitis C virus; experiment: Antiviral activity against Hepatitis C virus genotype 1b infected in human HuH6 cells assessed as reduction in replicon RNA after 4days by RT-qPCR analysis; type: functional, organism-based, Hepacivirus hominis; details: HuH-6, 96 h
[8] = Cytotoxicity against human Huh-Mono cells after 3 days by MTT assay; type: cell-based

Structure (SMILES) | pEC50 [1] | CC50 at 72 h [2] [µM] | CC50 at 72 h [3] [µM] | CC50 at 72 h [4] [µM] | pEC50 [5] | pEC50 [6] | pEC50 [7] | CC50 at 72 h [8] [µM]
C[C@@]1(O)[C@H](O)[C@@H](CO)O[C@H]1n1cnc2c(N)ncnc21 | 5.77 | > 33 | > 33 | 21 | 6.40 | 6.92 | 6.54 | > 33
[N-]=[N+]=N[C@]1(CO)O[C@@H](n2ccc(N)nc2=O)[C@H](O)[C@@H]1O [4'-AZIDOCYTIDINE] | 5.66 | > 33 | > 33 | > 33 | 5.80 | 5.85 | 5.22 | > 33
C/C=C/C[C@@H](C)[C@@H](O)[C@H]1C(=O)N[C@@H](CC)C(=O)N(C)[C@H](C)C(=O)N(CC)[C@@H](C(C)C)C(=O)N[C@@H](C(C)C)C(=O)N(C)[C@@H](CC(C)C)C(=O)N[C@@H](C)C(=O)N[C@H](C)C(=O)N(C)[C@@H](CC(C)C)C(=O)N(C)[C@@H](CC(C)C)C(=O)N(C)[C@@H](C(C)C)C(=O)N1C [ALISPORIVIR] | 7.40 | > 3 | > 3 | > 3 |  | 7.22 | 7.30 | > 3
CC(C)(C)NC(=O)N[C@H](C(=O)N1C[C@H]2[C@@H]([C@H]1C(=O)NC(CC1CCC1)C(=O)C(N)=O)C2(C)C)C(C)(C)C (stereo partly drawn) [BOCEPREVIR] | 5.70 | > 33 | > 33 | > 33 | 6.89 |  |  | > 33
C/C=C/C[C@@H](C)[C@@H](O)[C@H]1C(=O)N[C@@H](CC)C(=O)N(C)CC(=O)N(C)[C@@H](CC(C)C)C(=O)N[C@@H](C(C)C)C(=O)N(C)[C@@H](CC(C)C)C(=O)N[C@@H](C)C(=O)N[C@H](C)C(=O)N(C)[C@@H](CC(C)C)C(=O)N(C)[C@@H](CC(C)C)C(=O)N(C)[C@@H](C(C)C)C(=O)N1C [CYCLOSPORINE] | 6.52 |  |  |  | 6.30 | 6.52 | 6.62 | 
CNC(=O)c1c(-c2ccc(F)cc2)oc2cc(N(CCO)S(C)(=O)=O)c(C3CC3)cc12 [NESBUVIR] | 8.40 | > 33 | > 33 | > 33 | 7.52 | 7.72 | 7.70 | > 33
Brc1c(Br)c(Br)c2[nH]nnc2c1Br [TETRABROMOBENZOTRIAZOLE] | 4.21 | > 100 | > 100 | > 100 | 4.19 | 4.40 | 4.37 | > 100
O=C(O)c1cccs1 [THIOPHENE CARBOXYLIC ACID] |  | > 33 | > 33 | > 33 |  |  |  | > 33

Reference: ChEMBL document CHEMBL1671625, “Comparative in vitro anti-hepatitis C virus activities of a selected series of polymerase, protease, and helicase inhibitors” (Antimicrob Agents Chemother, 2008)
